# Laboratory results from patent publication US20060205641A1, “[…]4 polypeptides and […]4 polynucleotides” (SmithKline Beecham plc, priority 1999, published 2006).
# How the values were obtained:
# Type in all cases: cell-based
# [1] = target: T1, hVR1 (Homo sapiens, UniProt Q8NER1); settings: for pEC50 hVR1: HEK293 cells transiently expressing hVR1, Fluo-3 calcium, FLIPR, mean ± s.e.mean, n = 3-5, IA = inactive; for activity at VR1: result in words
# T1 construct: expressed in transfected cells; host or cells: HEK293 (transient expression)
# T1 sequence (Q8NER1 whole entry): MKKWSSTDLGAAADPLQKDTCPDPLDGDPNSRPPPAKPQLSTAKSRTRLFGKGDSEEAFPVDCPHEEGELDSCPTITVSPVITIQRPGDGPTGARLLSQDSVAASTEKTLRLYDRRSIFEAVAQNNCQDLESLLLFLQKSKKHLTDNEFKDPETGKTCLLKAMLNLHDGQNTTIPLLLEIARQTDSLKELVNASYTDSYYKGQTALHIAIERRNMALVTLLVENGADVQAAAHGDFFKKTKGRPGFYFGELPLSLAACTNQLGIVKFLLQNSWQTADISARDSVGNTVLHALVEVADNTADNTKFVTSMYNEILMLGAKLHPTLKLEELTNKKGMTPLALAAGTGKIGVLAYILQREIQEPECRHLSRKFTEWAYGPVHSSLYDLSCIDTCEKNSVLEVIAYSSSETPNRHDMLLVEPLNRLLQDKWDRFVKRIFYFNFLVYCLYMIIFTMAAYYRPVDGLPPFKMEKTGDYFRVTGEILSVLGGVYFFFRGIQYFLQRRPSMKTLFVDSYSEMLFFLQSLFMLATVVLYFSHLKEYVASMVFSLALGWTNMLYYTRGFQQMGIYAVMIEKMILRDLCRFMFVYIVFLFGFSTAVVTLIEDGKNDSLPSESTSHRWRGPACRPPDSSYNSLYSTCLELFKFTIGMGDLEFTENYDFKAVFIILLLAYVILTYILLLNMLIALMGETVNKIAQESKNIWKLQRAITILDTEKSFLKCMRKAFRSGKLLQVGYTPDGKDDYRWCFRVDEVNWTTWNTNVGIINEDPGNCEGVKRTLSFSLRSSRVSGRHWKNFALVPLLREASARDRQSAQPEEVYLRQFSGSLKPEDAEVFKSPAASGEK
# [2] = system: wild type HEK293 cells; experiment: FLIPR intracellular calcium assay, wild type HEK293 cells; settings: result in words
# [3] = system: HEK293 cells transfected with empty vector; experiment: FLIPR intracellular calcium assay, HEK293 cells transfected with empty vector; settings: result in words
# [4] = target: T2, hVR4 (Homo sapiens, UniProt Q9HBA0); experiment: FLIPR intracellular calcium assay, HEK293 cells transiently expressing hVR4 ([…]4); settings: for pEC50 hVR4: HEK293 cells transiently expressing hVR4, Fluo-3 calcium, FLIPR, mean ± s.e.mean, n = 3-5, IA = inactive; for effect on intracellular calcium in HEK293-hVR4 cells: result in words
# T2 construct: expressed in transfected cells; host or cells: HEK293 (transient expression)
# T2 sequence (Q9HBA0 whole entry): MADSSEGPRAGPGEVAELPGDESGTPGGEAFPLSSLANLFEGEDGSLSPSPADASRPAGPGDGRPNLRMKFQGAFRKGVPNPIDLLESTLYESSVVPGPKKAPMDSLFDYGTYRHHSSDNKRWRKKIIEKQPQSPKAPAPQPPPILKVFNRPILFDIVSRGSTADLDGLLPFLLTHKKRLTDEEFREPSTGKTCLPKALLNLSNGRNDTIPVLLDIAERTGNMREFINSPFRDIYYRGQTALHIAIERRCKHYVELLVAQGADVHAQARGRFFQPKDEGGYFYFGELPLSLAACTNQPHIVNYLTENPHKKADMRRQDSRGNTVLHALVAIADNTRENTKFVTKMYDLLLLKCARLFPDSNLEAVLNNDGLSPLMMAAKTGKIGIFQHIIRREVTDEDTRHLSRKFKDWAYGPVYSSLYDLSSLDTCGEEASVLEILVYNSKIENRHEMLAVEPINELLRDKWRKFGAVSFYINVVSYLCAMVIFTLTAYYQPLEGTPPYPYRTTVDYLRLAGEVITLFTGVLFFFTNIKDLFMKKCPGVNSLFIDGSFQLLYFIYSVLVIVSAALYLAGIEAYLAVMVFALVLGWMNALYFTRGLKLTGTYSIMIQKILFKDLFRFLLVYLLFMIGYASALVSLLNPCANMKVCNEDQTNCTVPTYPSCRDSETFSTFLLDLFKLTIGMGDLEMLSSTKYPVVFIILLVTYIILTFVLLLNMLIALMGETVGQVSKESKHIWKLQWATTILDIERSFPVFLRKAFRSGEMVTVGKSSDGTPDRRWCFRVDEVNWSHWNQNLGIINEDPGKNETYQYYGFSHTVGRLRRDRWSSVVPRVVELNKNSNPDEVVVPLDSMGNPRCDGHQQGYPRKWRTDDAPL
# Protocol: HEK293 cells transiently expressing hVR1 or hVR4 were seeded into FLIPR96 plates at 25,000 cells/well and cultured overnight. The cells were then loaded in medium containing 4 microM Fluo-3 for 2 hrs, at room temperature, in the dark. The cell plates were then washed 4× with Tyrode containing 1.5 mM calcium and 0.2% BSA. Agonist and antagonist plates were prepared in the same buffer. Cells were preincubated with either antagonist or buffer at room temperature for 30 mins. Agonists additions and calcium measurements were made in the FLIPR (Smart et al., (2000) Br J. Pharmacol. 129, 227-230).
Compound,pEC50 hVR1 [1],effect on intracellular calcium in wild type HEK293 cells [2],effect on intracellular calcium in cells transfected with empty vector [3],"Emax ([1]; at VR1, compared to capsaicin and RTX)",activity at VR1 [1],pEC50 hVR4 [4],effect on intracellular calcium in HEK293-hVR4 cells [4],"selectivity (conclusion) ([4]; VR4 versus VR1, result in words)"
C=C(C)[C@]12C[C@@H](C)[C@@]34O[C@](Cc5ccccc5)(O[C@@H]1[C@@H]3C=C(COC(=O)Cc1ccc(O)c(OC)c1)C[C@]1(O)C(=O)C(C)=C[C@@H]41)O2 [RTX],8.93 ± 0.20,,,,,,,
"CCCCCCCCCCCCCC(=O)O[C@@H]1[C@@H](C)[C@@]2(O)[C@@H](C=C(CO)C[C@]3(O)C(=O)C(C)=C[C@@H]23)[C@@H]2C(C)(C)[C@]12OC(C)=O [PMA, phorbol 12-myristate 13-acetate]",7.86 ± 0.06,without effect,without effect,0.46,partial agonist,6.64 ± 0.06,increased intracellular calcium,
"CCCCCCCCCC(=O)O[C@@H]1[C@@H](C)[C@@]2(O)[C@@H](C=C(CO)C[C@@]3(O)C(=O)C(C)=C[C@@H]23)[C@@H]2C(C)(C)[C@]12OC(=O)CCCCCCCCC [4αPDD, 4α-phorbol-12,13-didecanoate]",,without effect,without effect,,inactive,5.73 ± 0.06,increased intracellular calcium,"In conclusion, 4αPDD acts as a VR4 selective agonist."
